US7214669B2, “Tetracycline derivatives and methods of use thereof” (Tetragenex Pharmaceuticals, Inc., priority 2001, dated 2007)
Several values for one entry are separate records, joined by “and”; a condition that tells them apart may be missing. Equal values may be shown once. Where a name gives a salt, the structure may show the parent alone.

What was measured:
[1] = biological target: Human recombinant MMP3 (Homo sapiens, UniProt P08254); experiment: MMP3 (Stromelysin 1) inhibition, 14C casein release; format: biochemical; conditions: 37° C., 16 hours; read-out: MMP-3 inhibitory activity, IC50
Sequence of Human recombinant MMP3 (P08254 100-477): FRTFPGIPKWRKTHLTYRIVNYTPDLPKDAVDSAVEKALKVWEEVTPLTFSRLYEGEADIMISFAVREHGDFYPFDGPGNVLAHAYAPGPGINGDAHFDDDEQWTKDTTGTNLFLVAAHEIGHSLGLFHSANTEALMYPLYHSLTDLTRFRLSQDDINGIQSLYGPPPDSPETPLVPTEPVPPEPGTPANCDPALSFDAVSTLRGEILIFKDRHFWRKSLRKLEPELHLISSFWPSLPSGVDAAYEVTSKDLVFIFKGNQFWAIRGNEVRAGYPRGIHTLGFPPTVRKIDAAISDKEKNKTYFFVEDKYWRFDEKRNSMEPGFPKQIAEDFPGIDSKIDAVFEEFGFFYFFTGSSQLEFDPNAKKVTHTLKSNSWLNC

[2] = biological target: Human recombinant MMP14 (Homo sapiens, UniProt P50281); experiment: MMP14 (MTI-MMP) inhibition, 14C collagen release; format: biochemical; conditions: 35° C., 15 hours; read-out: MMP-14 inhibitory activity, IC50
[3] = tested on: C8161 human melanoma cells; experiment: Membrane Invasion Culture System (MICS) chemo-invasion assay; format: cell-based; conditions: 24 hours, + = increased invasiveness
Source text: (§1) Another objective was to analyze the effects of specific, tetracycline derived compounds on the in-vitro chemo-invasive potential of: • C8161 human melanoma cells • MDA-MB-231 human breast cancer cells • PC3 human prostate cancer cells • RPM18226 human myeloma cancer cells • Ark human myeloma cancer cells • Arp-1 human myeloma cancer cells
(§2) The Membrane Invasion Culture System (MICS) in vitro chemo-invasion assay was chosen to measure changes in the invasive potential of specific human cancer cells in response to tetracycline derived compounds. Stock solutions of each compound were hydrated in water containing 2% DMSO and pH 10.0. Upon solubilization, HCl was added to the solution to establish a pH of 7.5–8.0. This solution was then wrapped in foil and kept at 4° C. during the 24 hours of assay. Fresh compound was prepared for each assay. The in vitro chemoinvasion analyses for tumor cell invasiveness are performed using the Membrane Invasion Culture System (MICS) as previously described.
(§3) The MICS system is a thermally treated plastic manifold system consisting of two matched sets of plates containing fourteen wells, 13 mm in diameter. Interposed between these plates was a polycarbonate filter containing 10 μm pores and coated with a defined matrix composed of human laminin/collagen IV/gelatin that formed a 35 μm thick barrier between the top and bottom sections of the wells in MICS. Prior to placing this barrier in place, the lower wells were filled with serum-free RPMI culture medium made 50% in conditioned medium obtained from 2-day-old cultures of human fibroblasts which had been cleared of cells and cellular debris by either centrifugation, or filtering through a 0.45 μm sterile filter. The barrier was then placed on the lower wells and fresh serum-free medium added to the upper wells after assembly of the system. Fifty thousand tumor cells were then added to the wells either in the presence of the compound, or the DMSO vehicle (the controls). Of the 12 assay wells on each manifold, 3 randomized wells acted as controls, 3 wells received 1 μg/ml of compound, 3 received 10 μg/ml and 3 received 25 μg/ml. After 24 hours, cells and media were removed from the lower wells and replaced by phosphate buffered saline plus 2 mM EDTA. This solution was used to remove all cells from the lower well, and this wash was added to the recovered cells plus medium from the same well. These samples were then collected onto a polylysine containing polycarbonate membrane containing 3 μm pores using a Dot-Blot manifold system. These collection filters were then fixed in methanol, and stained using Wright's stain (Leukostat staining kit) in situ. The filters were then mounted on microscope slides with microscope immersion oil (which reduced the light refraction from the pores) and 5 microscopic fields were counted to calculate the number of cells which invaded through the membrane over the 24 hour period. These numbers were then statistically analyzed as discussed below.

[4] = tested on: RPMI-8226 human myeloma cancer cells; experiment: as above; format: cell-based; conditions: 24 hours, + = increased invasiveness
Source text: as §1, §2, §3

[5] = tested on: PC-3 ML human prostate cancer cells; experiment: as above; format: cell-based; conditions: 24 hours, + = increased invasiveness
Source text: as §1, §2, §3

[6] = tested on: MDA-MB-231 human breast cancer cells; experiment: as above; format: cell-based; conditions: 24 hours, + = increased invasiveness
Source text: as §1, §2, §3

[7] = biological target: T1, MMP2 (Gelatinase A) (Homo sapiens, UniProt P08253); experiment: MMP2 (Gelatinase A) inhibition, 14C gelatin release; format: biochemical; conditions: 37° C., 16 hours; read-out: MMP-2 inhibitory activity, IC50
T1 sequence (P08253 110-660): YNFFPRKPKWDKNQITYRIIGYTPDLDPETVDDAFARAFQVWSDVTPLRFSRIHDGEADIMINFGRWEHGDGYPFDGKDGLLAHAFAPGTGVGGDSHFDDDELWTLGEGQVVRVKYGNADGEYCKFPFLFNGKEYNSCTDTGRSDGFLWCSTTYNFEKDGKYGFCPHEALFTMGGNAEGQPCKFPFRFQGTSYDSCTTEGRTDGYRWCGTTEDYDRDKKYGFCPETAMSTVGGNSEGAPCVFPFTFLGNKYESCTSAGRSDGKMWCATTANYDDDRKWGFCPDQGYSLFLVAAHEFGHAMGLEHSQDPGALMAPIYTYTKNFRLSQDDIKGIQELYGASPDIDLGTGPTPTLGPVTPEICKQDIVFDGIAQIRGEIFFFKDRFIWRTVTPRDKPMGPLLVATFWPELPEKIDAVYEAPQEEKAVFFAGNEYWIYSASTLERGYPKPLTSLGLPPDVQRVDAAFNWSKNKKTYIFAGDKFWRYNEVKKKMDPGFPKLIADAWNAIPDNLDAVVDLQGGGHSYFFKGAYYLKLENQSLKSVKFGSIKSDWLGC

[8] = biological target: T2, Human recombinant MMP1 (Homo sapiens, UniProt P03956); experiment: MMP1 (Collagenase-1) inhibition, 14C collagen release; format: biochemical; conditions: 35° C., 5 hours; read-out: MMP-1 inhibitory activity, IC50
T2 sequence (P03956 100-469): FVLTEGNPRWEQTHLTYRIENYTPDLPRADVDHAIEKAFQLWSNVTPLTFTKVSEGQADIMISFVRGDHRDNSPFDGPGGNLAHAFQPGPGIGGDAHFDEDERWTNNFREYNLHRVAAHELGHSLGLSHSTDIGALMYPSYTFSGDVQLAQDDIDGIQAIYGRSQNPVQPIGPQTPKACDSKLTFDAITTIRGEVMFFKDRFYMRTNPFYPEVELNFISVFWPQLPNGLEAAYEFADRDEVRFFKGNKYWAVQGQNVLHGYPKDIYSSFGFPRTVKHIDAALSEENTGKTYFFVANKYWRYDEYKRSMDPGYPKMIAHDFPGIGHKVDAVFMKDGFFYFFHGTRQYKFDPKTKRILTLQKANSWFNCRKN
Method: Protocol for Measuring MMP1 (Collagenase-1) Inhibition by Tetracycline Derivatives
MMP1 activity was determined by the release of soluble ^14C labelled collagen fragments from ^14C acetylated rat skin type I collagen (Methods in Enzymology 80 711, 1981).
• 100 μg ^14C labelled rat skin type I collagen (5–6000 dpm) • 50 mM Tris HCl pH 7.9 • 15 mM CaCl2 0.02% azide • Human recombinant MMP1 3–4 nM • ±Tetracycline (up to 1 mM) in a total volume of 300 μl.
Incubations were at 35° C. for 5 hours. Uncleaved collagen fibrils (which form within the first 10 minutes) were removed by centrifugation at 10,000 g, 4° C., 10 minutes. 200 μl supernatant were counted in Packard Opti Phase Supermix scintillation fluid using a scintillation counter. Only data derived from within the linear part of the assay (10–70% lysis of the collagen) were utilized. Based on percentage inhibition of the activity of MMP1 alone by a range of concentrations of each sample, the IC50 value for each tetracycline was calculated by linear regression analysis.

[9] = biological target: Human recombinant MMP9 (Homo sapiens, UniProt P14780); experiment: MMP9 (Gelatinase B) inhibition, 14C gelatin release; format: biochemical; conditions: 37° C., 16 hours; read-out: MMP-9 inhibitory activity, IC50
Sequence of Human recombinant MMP9 (P14780 94-707): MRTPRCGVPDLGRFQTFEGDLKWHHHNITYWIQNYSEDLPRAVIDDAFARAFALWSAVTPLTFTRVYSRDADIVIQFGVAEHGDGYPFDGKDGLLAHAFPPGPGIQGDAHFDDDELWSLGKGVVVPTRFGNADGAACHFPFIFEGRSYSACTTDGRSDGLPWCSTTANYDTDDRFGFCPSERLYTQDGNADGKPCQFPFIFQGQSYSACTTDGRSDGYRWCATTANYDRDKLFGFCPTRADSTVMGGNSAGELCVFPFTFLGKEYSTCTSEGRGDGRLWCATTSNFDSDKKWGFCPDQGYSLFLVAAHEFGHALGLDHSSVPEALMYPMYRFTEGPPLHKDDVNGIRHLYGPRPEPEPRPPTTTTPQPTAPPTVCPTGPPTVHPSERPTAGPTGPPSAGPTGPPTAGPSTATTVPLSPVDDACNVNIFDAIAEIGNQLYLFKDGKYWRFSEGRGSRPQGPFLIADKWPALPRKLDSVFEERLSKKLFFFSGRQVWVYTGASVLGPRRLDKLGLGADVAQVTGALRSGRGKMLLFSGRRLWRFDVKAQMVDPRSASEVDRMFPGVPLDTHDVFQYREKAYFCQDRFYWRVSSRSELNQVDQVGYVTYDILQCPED
Method: Protocol for Measuring MMP9 (Gelatinase B) Inhibition
MMP9 activity was determined by the release of trichloracetic acid, TCA soluble fragments from ^14C acetylated rat skin type I (Methods in Enzymology 248, 470, 1995. Biochem. J. 195, 1981)
• 100 μg ^14C labelled gelatin (collagen denatured 60° C. 20 min) • 50 mM Tris HCl pH 7.9 • 15 mM CaCl2, 0.02% azide • Human recombinant MMP9, 1.2–2 nM • ±Tetracycline (up to 1 mM) in a total volume of 250 μl.
Incubations were at 37° C. for 16 hours. The incubations were stopped by cooling the incubations and addition of 50 μl cold 90% (w/v) trichloracetic acid with careful mixing. TCA precipitation was allowed to proceed for 15 minutes at 4° C. prior to centrifugation at 10,000 g for 10 minutes at 4° C. 200 μl of the TCA supernatant was taken for the determination of radioactive content by scintillation counting (Packard Opti Phase Supermix scintillation fluid). Only data derived from within the linear part of the assay (10–70% lysis) were utilized. The percentage inhibition of MMP9 by each tetracycline concentration were plotted to derive the IC50 value.

Compound	IC50 [1] [µM]	percent inhibition, C8161 (Melanoma) ([3]; 1 ug/mL)	percent inhibition, C8161 (Melanoma) ([3]; 10 ug/mL)	percent inhibition, C8161 (Melanoma) ([3]; 25 ug/mL)	percent inhibition, RPMI-8226 (Multiple Myeloma) ([4]; 1 ug/mL)	percent inhibition, RPMI-8226 (Multiple Myeloma) ([4]; 10 ug/mL)	percent inhibition, RPMI-8226 (Multiple Myeloma) ([4]; 25 ug/mL)	percent inhibition, PC-3 ML (Prostrate) ([5]; 1 ug/mL)	percent inhibition, PC-3 ML (Prostrate) ([5]; 10 ug/mL)	percent inhibition, PC-3 ML (Prostrate) ([5]; 25 ug/mL)	percent inhibition, MDA-MB-231 (Breast) ([6]; 1 ug/mL)	percent inhibition, MDA-MB-231 (Breast) ([6]; 10 ug/mL)	percent inhibition, MDA-MB-231 (Breast) ([6]; 25 ug/mL)	IC50 [7] [µM]	IC50 [8] [µM]	IC50 [9] [µM]	other results
CC1c2c([N+](=O)[O-])cc(C(C)(C)C)c(O)c2C(=O)C2=C(O)C3(O)C(=O)C(C(N)=O)=C(O)CC3C(O)C21 (centres unmarked) [Compound 40, 7-Nitro-9-tertbutyl-4-dedimethylamino-6-deoxy-5-hydroxy-tetracycline H2SO4]	91	+1%	+5%	+4%	16%	11%	9%	+1%	+7%	+4%	9%	15%	20^B percent	362	560	–	IC50 [2]: 29 µM
CN(C)[C@@H]1C(=O)C(C(N)=O)=C(O)[C@@]2(O)C(=O)C3=C(O)c4c(O)cccc4C[C@H]3C[C@@H]12.Cl [Compound 53, 6-Demethyl-6-deoxytetracycline HCl]	–	+40^B percent	+158^B percent	83^B percent	+95^B percent	18%	84^B percent	29^B percent	21%	45^B percent	9%	49^B percent	83^B percent	–	–	–	–
CC1c2ccc(-c3ccc(F)cc3)c(O)c2C(=O)C2=C(O)C3(O)C(=O)C(C(N)=O)=C(O)C(N(C)C)C3C(O)C21 (centres unmarked) [Compound 51, 9-(4-fluorophenyl)-6-deoxy-5-hydroxytetracycline]	–	+9%	+31^B percent	+122^B percent	14%	+26^B percent	+2%	+4%	+13%	4%	+15^B percent	+18%	25^B percent	–	–	–	–
CN(C)C1C(O)=C(C(N)=O)C(=O)C2(O)C(O)=C3C(=O)c4c(O)ccc(Cl)c4C(C)(O)C3CC12 (stereo not drawn) [Compound 52, 4-Epi-7-Chlorotetracycline hydrochloride]	–	5%	15%	30%	–	–	–	–	–	–	5%	12%	52^B percent	–	–	–	percent inhibition, RPMI-8226 (Multiple Myeloma) ([4]; 10 ug/mL, hydrochloride): 26^B percent and 33^B percent; percent inhibition, RPMI-8226 (Multiple Myeloma) ([4]; 25 ug/mL, hydrochloride): 68^B percent and 46^B percent; percent inhibition, PC-3 ML (Prostrate) ([5]; 1 ug/mL, hydrochloride): 52^B percent and 31^B percent; percent inhibition, PC-3 ML (Prostrate) ([5]; 10 ug/mL, hydrochloride): 68^B percent and 48^B percent; percent inhibition, PC-3 ML (Prostrate) ([5]; 25 ug/mL, hydrochloride): 70^B percent and 63^B percent
CC1c2c(N=[N+]=[N-])cc(C(C)(C)C)c(O)c2C(=O)C2=C(O)C3(O)C(=O)C(C(N)=O)=C(O)C(N(C)C)C3C(O)C21 (centres unmarked) [Compound 45, 7-Azido-9-tertbutyl-6-deoxy-5-hydroxytetracycline H2SO4]	194	–	–	–	–	–	–	–	–	–	–	–	–	2450	384	6630	–
CC1c2c(N)cc(C(C)(C)C)c(O)c2C(=O)C2=C(O)C3(O)C(=O)C(C(N)=O)=C(O)C(N(C)C)C3C(O)C21 (centres unmarked) [Compound 44, 7-Amino-9-tertbutyl-6-deoxy-5-hydroxytetracycline H2SO4]	224	–	–	–	–	–	–	–	–	–	–	–	–	1470	1440	591	–
